Experimental findings from ChEMBL document CHEMBL1152008, “N,N-disubstituted benzopyran-4-(N-cyano)carboxamidines, cromakalim analogs with selective activity for guinea pig trachealis” (Bioorg Med Chem Lett, 1993) are described below.

What all share (assay type): functional
The species entered for assay [1] is Cavia porcellus. The assay is described as follows: Tested for relaxation of guinea pig trachealis smooth muscle.
The species entered for assay [2] is Cavia porcellus. The assay is described as follows: Tested for the ability to inhibit spontaneous tone in guinea pig trachealis by 50%, activity expresses as negative logarithm of molar concentration.
For assay [3], the species on record is Rattus norvegicus. The assay is described as follows: Tested for relaxation of rat aorta smooth muscle.
The species entered for assay [4] is Rattus norvegicus. The assay can be described thus: Tested for relaxation of rat aorta smooth muscle precontracted with 30 mM KCI by 50%, activity expresses as negative logarithm of molar concentration.

Broadly, the EC50 is the concentration needed to bring the measured effect to its halfway point. Low readings indicate an effect from little substance, high ones a need for much substance. `C/N=C(/NC#N)C1=CC(C)(C)Oc2ccc(C#N)cc21`: the IA came out at 86% in the assay filed under Cavia porcellus [1] and 73% in the assay listed under Rattus norvegicus [3]. Also, the EC50 in the assay listed under Cavia porcellus [2] is 646 nM.
As to `CC1(C)Oc2ccc(C#N)cc2[C@H](N2CCCC2=O)[C@H]1O` (single isomer, unassigned) [(-)-CROMAKALIM], the IA in the assay listed under Cavia porcellus [1] is reported as 85.1%; in the assay filed under Rattus norvegicus [3], 74.7%.
On to `CC/N=C(/NC#N)C1=CC(C)(C)Oc2ccc([N+](=O)[O-])cc21`, for which the IA is 85.3% in the assay listed under Cavia porcellus [1] and 75.1% in the assay filed under Rattus norvegicus [3]. In addition, the concentration giving a half-maximal response (EC50) in the assay listed under Cavia porcellus [2] is 170 nM; in the assay listed under Rattus norvegicus [4], 89.1 nM.
With `CCN(CC)/C(=N\C#N)C1=CC(C)(C)Oc2ccc([N+](=O)[O-])cc21`, the EC50 in the assay filed under Cavia porcellus [2] and in the assay listed under Rattus norvegicus [4] was greater than 31600 nM each time.
With `C/N=C(/NC#N)C1=CC(C)(C)Oc2ccc([N+](=O)[O-])cc21`, the IA in the assay listed under Cavia porcellus [1] worked out at 86.5%; in the assay listed under Rattus norvegicus [3] it was 79.9%. In addition, the EC50 in the assay listed under Cavia porcellus [2] is 23.4 nM; in the assay filed under Rattus norvegicus [4], 15.1 nM.
In the assay filed under Cavia porcellus [1], `CCN(C)/C(=N\C#N)C1=CC(C)(C)Oc2ccc([N+](=O)[O-])cc21` registered an IA of 77.9%. Moreover, the EC50 in the assay listed under Cavia porcellus [2] is 178 nM; in the assay filed under Rattus norvegicus [4], greater than 31600 nM.
On to `CC(N/C(=N\C#N)Nc1ccncc1)C(C)(C)C` (configuration not stated) [PINACIDIL ANHYDROUS], for which the IA in the assay listed under Cavia porcellus [1] amounted to 97.3%; in the assay filed under Rattus norvegicus [3], 91.9%.
With `CN(C)/C(=N\C#N)C1=CC(C)(C)Oc2ccc([N+](=O)[O-])cc21`, the IA in the assay listed under Cavia porcellus [1] came to 90.6%. Also, the EC50 in the assay filed under Rattus norvegicus [4] was greater than 31600 nM.
